Assay results published in patent US9718790B2, “Triazine derivative and pharmaceutical composition having an analgesic activity comprising the same” (SHIONOGI & CO., LTD., priority 2010, dated 2017).
pIC50: −log10 of the molar value.

Target: human P2X3 receptor (Homo sapiens (Human), UniProt P56373)
Experiment: Evaluation of human P2X3 receptor inhibitory activity (Fluo-3 calcium fluorescence, FDSS 3000, ATP stimulation);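 also: stimulus was 50 nM ATP with fluorescence followed for 3 min, and the response per well was peak post-ATP fluorescence divided by the reading at measurement start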
Format: cell-based
[1] = C6BU-1 cells stably expressing human P2X3 receptor
[2] = human P2X3 receptor, Test Example 1
[3] = C6BU-1 cells stably expressing human P2X3 receptor, Fluo-3 fluorescence, FDSS 3000

Chain of human P2X3 receptor (P56373 whole entry): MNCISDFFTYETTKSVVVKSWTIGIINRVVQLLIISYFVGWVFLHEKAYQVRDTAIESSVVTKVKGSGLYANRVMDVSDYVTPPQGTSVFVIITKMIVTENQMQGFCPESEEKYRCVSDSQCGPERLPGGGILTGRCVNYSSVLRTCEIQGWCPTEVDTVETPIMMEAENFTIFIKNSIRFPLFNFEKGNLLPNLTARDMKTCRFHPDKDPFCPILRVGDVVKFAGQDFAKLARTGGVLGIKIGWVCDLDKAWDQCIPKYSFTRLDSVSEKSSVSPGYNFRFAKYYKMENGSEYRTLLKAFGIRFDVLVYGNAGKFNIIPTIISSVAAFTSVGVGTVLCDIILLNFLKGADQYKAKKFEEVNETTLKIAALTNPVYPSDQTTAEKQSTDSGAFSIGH

`CCn1c(=O)[nH]/c(=N\c2ccc(Oc3cccc(CO)c3)cc2)n(Cc2ccc(Cl)cc2)c1=O` [Compound I-2065] gave a pIC50 [1] of 7.27.

Work on `CCc1cc2cc(/N=c3\[nH]c(=O)n(CCCOC4CCCCO4)c(=O)n3Cc3ccc(Cl)cc3)ccc2o1` (stereo not shown) [Compound I-2335] yielded a pIC50 [2] of 8.22.

`COC(=O)[C@@H](C)Cn1c(=O)[nH]/c(=N\c2ccc(C3CCCC3)cc2)n(Cc2ccc(C)cc2)c1=O` [Compound I-1090] was tested, and the pIC50 [3] was 6.87.

Compound `Cn1c(=O)[nH]/c(=N\c2ccc(Oc3cncc(C(N)=O)n3)cc2)n(Cc2ccc(Cl)cc2)c1=O` [Compound I-2471] has a pIC50 [2] of 8.30.

In the case of `Cc1ccc(Cn2c(=O)n(C[C@H](C)C(=O)O)c(=O)[nH]/c2=N\c2cccc(C3CCCCC3)c2)cc1` [Compound I-1109], the pIC50 [3] was 6.37.

`CCn1c(=O)[nH]/c(=N\c2ccc(Oc3nc(C(=O)O)cs3)cc2)n(Cc2ccc(F)cc2)c1=O` [Compound I-2568] was tested, and the pIC50 [2] was 7.06.

For `Cc1ccc(Cn2c(=O)n([C@@H](C)[C@@H](C)C(=O)O)c(=O)[nH]/c2=N\c2ccc(OC(C)C)c(F)c2)cc1` [Compound I-0974], the pIC50 [3] was 7.54.

With `COC(=O)[C@@H](C)Cn1c(=O)[nH]/c(=N\c2ccc(OC(C)C)c(OC)c2)n(Cc2ccc(C)cc2)c1=O` [Compound I-1129] the pIC50 [3] was 7.96.

With `O=c1[nH]/c(=N\c2ccc(Oc3ccnc(CO)c3)cc2)n(Cc2ccc(Cl)cc2)c(=O)n1CCCO` [Compound I-1995] the pIC50 [1] was 8.30.

For `CCC[C@@H](C)Oc1ccc(/N=c2\[nH]c(=O)n(C[C@H](C)C(=O)O)c(=O)n2Cc2ccc(C)cc2)cc1` [Compound I-1061], the pIC50 [3] was 6.76.

`CCn1c(=O)[nH]/c(=N\c2ccc(Oc3cccc(/C=C/C(=O)OC)c3)cc2)n(Cc2ccc(C)cc2)c1=O` [Compound I-2327] showed a pIC50 [2] of 8.10.

`CCOC(=O)C1(Cn2c(=O)[nH]/c(=N\c3ccc(CC(C)C)c(Cl)c3)n(Cc3ccc(C)cc3)c2=O)CC1` [Compound I-1448] showed a pIC50 [1] of 7.92.

In the case of `O=C(O)CCn1c(=O)[nH]/c(=N\c2ccc(Oc3ccncc3)cc2)n(Cc2ccc(Cl)cc2)c1=O` [Compound I-1207], the pIC50 [1] was 7.82.

`CCCn1c(=O)[nH]/c(=N\c2ccc(Oc3ccc(C(N)=O)nc3)cc2)n(Cc2ccc(Cl)cc2)c1=O` [Compound I-2203] gave a pIC50 [1] of 9.00.

With `CCn1c(=O)[nH]/c(=N\c2ccc(OCc3nnc(C)o3)cc2)n(Cc2ccc(Cl)cc2)c1=O` [Compound I-2199] the pIC50 [1] was 6.29.

`COC(=O)[C@@H](C)Cn1c(=O)[nH]/c(=N\c2ccc(CC(C)(C)O)c(Cl)c2)n(Cc2ccc(C)cc2)c1=O` [Compound I-1527] gave a pIC50 [2] of 8.30.

`C=Cc1cc(/N=c2\[nH]c(=O)n(C[C@H](C)C(=O)OC)c(=O)n2Cc2ccc(C)cc2)ccc1OC(C)C` [Compound I-0907, (S)-1-(4-methylbenzyl)-6-(3-vinyl-4-isopropoxyphenylimino)-3-(2-methoxycarbonylpropyl)-1,3,5-triazinane-2,4-dion] gave a pIC50 [3] of 8.15.

`COC(=O)[C@H](C)[C@H](C)n1c(=O)[nH]/c(=N\c2ccc(OC(C)C)c(F)c2)n(Cc2ccc(C)cc2)c1=O` [Compound I-0967] showed a pIC50 [3] of 7.72.

`COC(=O)[C@@H](C)Cn1c(=O)[nH]/c(=N\c2ccc3[nH]c(C)cc3c2)n(Cc2ccc(Cl)cc2)c1=O` [Compound I-0692] showed a pIC50 [1] of 7.54.

Compound `CCOc1ccc(/N=c2\[nH]c(=O)n([C@@H](C)[C@@H](C)C(=O)O)c(=O)n2Cc2ccc(Cl)cc2)cc1Cl` [Compound I-0922] has a pIC50 [3] of 7.54.

`O=c1[nH]/c(=N\c2ccc(Oc3ccon3)cc2)n(Cc2ccc(Cl)cc2)c(=O)n1CCOC1CCCCO1` (stereo not shown) [Compound I-2288] gave a pIC50 [2] of 9.00.

With `Cc1ccc2cc(/N=c3\[nH]c(=O)n(C[C@H](C)C(=O)O)c(=O)n3Cc3ccc(Cl)cc3)ccc2n1` [Compound I-0864] the pIC50 [2] was 7.46.

`COC(=O)[C@@H](C)Cn1c(=O)[nH]/c(=N\c2ccc(OC(C)C)c(Cl)c2)n(Cc2ccccc2)c1=O` [Compound I-0763] was tested, and the pIC50 [1] was 7.10.

Compound `CCCCc1ccc(/N=c2\[nH]c(=O)n(C[C@H](C)C(=O)OC)c(=O)n2Cc2ccc(Cl)cc2)cc1` [Compound I-0620] has a pIC50 [1] of 7.36.

Work on `CC(=O)Nc1nc2ccc(/N=c3\[nH]c(=O)n([C@@H](C)[C@@H](C)C(=O)O)c(=O)n3Cc3ccc(Cl)cc3)cc2s1` [Compound I-1793] yielded a pIC50 [3] of 6.01.

Work on `CCn1c(=O)[nH]/c(=N\c2ccc(Oc3cccc(C(=O)OC)n3)cc2)n(Cc2ccc(C)cc2)c1=O` [Compound I-2180] yielded a pIC50 [1] of 7.96.

For `CC(C)(C)OC(=O)NCCn1c(=O)[nH]/c(=N\c2ccc(Oc3ccon3)cc2)n(Cc2ccc(Cl)cc2)c1=O` [Compound I-2522], the pIC50 [2] was 7.96.

Work on `Cc1cc(Oc2ccc(/N=c3\[nH]c(=O)n(CCCO)c(=O)n3Cc3ccc(Cl)cc3)cc2)no1` [Compound I-1835] yielded a pIC50 [3] of 8.10.

Compound `COC(=O)Cn1c(=O)[nH]/c(=N\c2ccc(Oc3ccc(OC)nc3)cc2)n(Cc2ccc(Cl)cc2)c1=O` [Compound I-1753] has a pIC50 [3] of 8.05.

For `CNC(=O)Cn1c(=O)[nH]/c(=N\c2ccc(Oc3cccnn3)cc2)n(Cc2ccc(Cl)cc2)c1=O` [Compound I-2690], the pIC50 [2] was 7.74.

`C[C@H](CO)n1c(=O)[nH]/c(=N\c2ccc(Oc3ccon3)cc2)n(Cc2ccc(Cl)cc2)c1=O` [Compound I-2488] gave a pIC50 [2] of 7.43.

For `COC(=O)[C@@H](C)Cn1c(=O)[nH]/c(=N\c2ccc(OC(C)C)c(C)c2)n(Cc2ccccc2)c1=O` [Compound I-0764], the pIC50 [1] was 6.60.

`CCn1c(=O)[nH]/c(=N\c2ccc(Oc3cccc4ocnc34)c(Cl)c2)n(Cc2ccc(Cl)cc2)c1=O` [Compound I-2195] showed a pIC50 [1] of 7.85.

`CCn1c(=O)[nH]/c(=N\c2ccc3nc(/C=N\OC)sc3c2)n(Cc2ccc(Cl)cc2)c1=O` [Compound I-2338] showed a pIC50 [2] of 6.59.

Work on `CC(C)Oc1ccc(/N=c2\[nH]c(=O)n(Cc3ccc(=O)[nH]c3)c(=O)n2Cc2ccc(Cl)cc2)cc1F` [Compound I-0649] yielded a pIC50 [1] of 7.68.

With `CCOC(=O)CCn1c(=O)[nH]/c(=N\c2ccc(CC(C)C)c(OC)c2)n(Cc2ccc(Cl)cc2)c1=O` [Compound I-1308] the pIC50 [1] was 7.54.

In the case of `Cc1ccc(Cn2c(=O)n(C[C@H](C)C(=O)O)c(=O)[nH]/c2=N\c2cnc(OC3CCCC3)c(Cl)c2)cc1` [Compound I-1477], the pIC50 [1] was 7.17.

Work on `COC(=O)CCCCn1c(=O)[nH]/c(=N\c2ccc(OC(C)C)c(Cl)c2)n(Cc2ccc(C)cc2)c1=O` [Compound I-1873] yielded a pIC50 [3] of 8.70.

Work on `CCn1c(=O)[nH]/c(=N\c2ccc(Oc3cc(O)ncn3)cc2)n(Cc2ccc(Cl)cc2)c1=O` [Compound I-1888] yielded a pIC50 [3] of 8.00.

Compound `Cc1ccc(Cn2c(=O)n(C[C@H](C)C(=O)O)c(=O)[nH]/c2=N\c2ccc(CC(C)C)c(F)c2)cc1` [Compound I-1256] has a pIC50 [1] of 7.74.

`Cc1cc(/N=c2\[nH]c(=O)n(C[C@H](C)CC(=O)O)c(=O)n2Cc2ccc(Cl)cc2)ccc1OC(C)C` [Compound I-0765] showed a pIC50 [1] of 7.40.

For `CCc1oc2ccc(/N=c3\[nH]c(=O)n(CC(C)(CO)CO)c(=O)n3Cc3ccc(Cl)cc3)cc2c1C` [Compound I-1644], the pIC50 [3] was 8.30.

Work on `C=Cc1cc(/N=c2\[nH]c(=O)n(C[C@H](C)C(=O)O)c(=O)n2Cc2ccc(C)cc2)ccc1OCC` [Compound I-1194] yielded a pIC50 [1] of 7.51.

`CCn1c(=O)[nH]/c(=N\c2ccc3nc(O)sc3c2)n(Cc2ccc(Cl)cc2)c1=O` [Compound I-2325] gave a pIC50 [2] of 7.33.

`O=c1[nH]/c(=N\c2ccc(Oc3ncccn3)cc2)n(Cc2ccc(Cl)cc2)c(=O)n1C[C@H](O)CO` [Compound I-2418] gave a pIC50 [2] of 7.92.

Work on `Cc1cc2cc(/N=c3\[nH]c(=O)n(C[C@H](C)C(=O)O)c(=O)n3Cc3ccc(Cl)cc3)ccc2[nH]1` [Compound I-0697] yielded a pIC50 [1] of 7.24.

Compound `Cc1ccc(Cn2c(=O)n(C[C@H](C)C(=O)O)c(=O)[nH]/c2=N\c2ccc(OC3CCC3)cc2)cc1` [Compound I-1220] has a pIC50 [1] of 7.89.

Compound `COC(=O)[C@H](C)Cn1c(=O)[nH]/c(=N\c2ccc(OC(C)C)cc2)n(Cc2ccc(C)cc2)c1=O` [Compound I-1104] has a pIC50 [3] of 7.96.

Compound `Cc1cc(/N=c2\[nH]c(=O)n(C[C@H](C)C(=O)O)c(=O)n2Cc2ccc(C(C)C)cc2)ccc1OC(C)C` [Compound I-1017] has a pIC50 [3] of 6.26.

Work on `COC(=O)[C@@H](C)Cn1c(=O)[nH]/c(=N\c2ccc(C(=O)C3CC3)cc2)n(Cc2ccc(C)cc2)c1=O` [Compound I-1302] yielded a pIC50 [1] of 6.77.

`O=c1[nH]/c(=N\c2ccc(Oc3cnsn3)cc2)n(Cc2ccc(Cl)cc2)c(=O)n1C[C@H](O)CO` [Compound I-2479] was tested, and the pIC50 [2] was 8.10.

Compound `COC(=O)[C@H](C)[C@H](C)n1c(=O)[nH]/c(=N\c2ccc(OC(C)C)c(Br)c2)n(Cc2ccc(C)cc2)c1=O` [Compound I-1307] has a pIC50 [1] of 8.15.

Work on `Cc1[nH]c2ccc(/N=c3\[nH]c(=O)n(CC(CO)CO)c(=O)n3Cc3ccc(Cl)cc3)cc2c1C` [Compound I-1935] yielded a pIC50 [1] of 8.05.

Compound `CCn1c(=O)[nH]/c(=N\c2ccc(Oc3ncc(C(=O)OC)cn3)cc2)n(Cc2ccc(Cl)cc2)c1=O` [Compound I-2322] has a pIC50 [2] of 8.22.

For `O=c1[nH]/c(=N\c2ccc(Oc3cncc(F)c3)cc2)n(Cc2ccc(Cl)cc2)c(=O)n1CCCO` [Compound I-1596], the pIC50 [3] was 8.40.

`CC(C)Oc1ccc(/N=c2\[nH]c(=O)n(Cc3cc[nH]c(=O)c3)c(=O)n2Cc2ccc(Cl)cc2)cc1F` [Compound I-0650] gave a pIC50 [1] of 7.70.

Work on `CC[C@H](CC(=O)OC)n1c(=O)[nH]/c(=N\c2ccc(OC(C)C)c(C)c2)n(Cc2ccc(Cl)cc2)c1=O` [Compound I-0783] yielded a pIC50 [1] of 7.19.

In the case of `Cc1nnc(Oc2ccc(/N=c3\[nH]c(=O)n(C[C@H](O)CO)c(=O)n3Cc3ccc(Cl)cc3)cc2)s1` [Compound I-2511], the pIC50 [2] was 6.63.

Work on `CCn1c(=O)[nH]/c(=N\c2ccc(Oc3cncc(C(=O)OC)c3)cc2)n(Cc2ccc(F)cc2)c1=O` [Compound I-2111] yielded a pIC50 [1] of 7.36.

Compound `Cc1nnc(Oc2ccc(/N=c3\[nH]c(=O)n(CC(CO)CO)c(=O)n3Cc3ccc(Cl)cc3)cc2)s1` [Compound I-2517] has a pIC50 [2] of 6.78.

`COC(=O)CC1(Cn2c(=O)[nH]/c(=N\c3ccc(OC(C)C)c(C)c3)n(Cc3ccc(C)cc3)c2=O)CC1` [Compound I-0980] was tested, and the pIC50 [3] was 7.96.

`COC(=O)[C@@H](C)Cn1c(=O)[nH]/c(=N\c2ccc(OC3CCC3)cc2)n(Cc2ccc(Cl)cc2)c1=O` [Compound I-1281] showed a pIC50 [1] of 8.22.

With `Cc1ccc(Cn2c(=O)n(C)c(=O)[nH]/c2=N\c2ccc(Oc3cccc(C(=O)O)n3)cc2)cc1` [Compound I-2268] the pIC50 [2] was 8.22.

In the case of `O=c1[nH]/c(=N\c2ccc(Oc3ccon3)cc2)n(Cc2ccc(Cl)cc2)c(=O)n1C(CO)CO` [Compound I-2542], the pIC50 [2] was 6.73.
